From US20140066438A1, “DOPAMINE RECEPTOR D2 ANTAGONIST FOR PREVENTION AND TREATMENT OF FLAVIVIRUS INFECTION” (Academia Sinica, priority 2012, published 2014)
Like-named read-outs stand apart in the source and are kept apart here.

Key:
[1] = target: mouse dopamine D2 receptor (mouse) (UniProt P61168)
[2] = tested on: DENV-2 NGC-N strain; test: Animal study: DENV-2 challenge of Stat1-deficient mice; type: in vivo
Procedure: Stat1^−/− mice were challenged with 5×10^4 PFU/mouse of DENV-2 NGC-N strain. The protective effect of PCZ dimaleate (A) and PCZ dimethanesulfonate (Novamin Injection) (B) were tested with immediate and 6-h delay treatment. (A) The mice received phosphate buffered saline (PBS; vehicle control, n=10), 5 mg (n=8) or 1 mg (n=8) PCZ-dimaleate/kg body weight/i.p. at the time of infection (immediate treatment), or 5 mg PCZ-dimaleate/kg body weight/i.p. at 6 h post-infection (6-h delay treatment, n=8). Mice received follow-up treatment with PBS (vehicle control) or half the dose of PCZ-dimaleate orally every 12 h until day-10 post infection. […] The days with treatment are marked by arrows. Mice survival was checked daily and the data are presented as percentage of survival.
The mouse experiments were approved and performed in accordance with the guidelines of the Academia Sinica Institutional Animal Care and Utilization Committee. Groups of 5-week-old Stat1-deficient (SaT1^−/−) mice were challenged intraperitoneally (i.p.) with 5×10^4 plaque-forming units (PFU)/mouse of DENV-2 NGC-N strain and simultaneously injected with 30 μl PBS intracranially (i.c.) into the right hemisphere of the brain. To study the efficacy of PCZ-dimaleate administered mainly by an oral route, mice were divided into 4 groups for treatment: PBS (vehicle control); 5 or 1 mg of PCZ/kg body weight/i.p. at the time of infection (immediate treatment); or 5 mg of PCZ/kg body weight/i.p. at 6 h post-infection (6-h delay treatment). Thereafter, twice a day, mice received a half dose of the first treatment orally with PBS (vehicle control) or 2.5 or 0.5 mg of PCZ/kg body weight/oral/12 h up to day 10 post-infection. […] Thereafter, every 2 days, mice received PBS or the same dose of PCZ up to day 10 post-infection. The mice were checked daily for mortality.

[3] = tested on: DENV-2; test: Cell-based antiviral assay against DENV-2 (IFA, immunoblotting of NS3, plaque-forming assay); design: species or system Dengue virus serotype 2 (PL046 strain); settings: for EC50: read-out: half-maximal effective concentration (EC50) against DENV-2 infection
Procedure: (A) PCZ cytotoxicity test. HEK293T cells were treated with solvent control or the indicated concentrations of PCZ for 24 h. AlamarBlue, XTT, and LDH assays were carried out to determine cell viability, cell proliferation, and cytotoxicity, respectively. Data are mean and standard deviation (SD) of 3 independent experiments. […] Representative immunofluorescence microscopy (400× magnification) of cells immunostained for DENV-2 NS3 (green) and DAPI for nuclei (blue). […] Plaque-forming assay of viral progeny production (plaque forming unit, PFU/ml) in culture supernatants of cells in panel C (D). Data are mean and SI) of 2 independent experiments. *P<0.05.
(A) PCZ cytotoxicity test. HEK293T cells were treated with solvent control or the indicated concentrations of PCZ (5, 10, 15, 20 and 25 μM). AlamarBlue, XTT and LDH assays were carried out to determine cell viability, cell proliferation, and cytotoxicity, respectively. […] (D) Plaque-forming assay of viral progeny production (plaque forming unit, PFU/ml): Data are mean and SD of two independent experiments. **P<0.01. […] BHK-21 cells (E) and N18 cells (F) infected with DENV-2 (MOI=0.1) were treated with or without PCZ for 2 days and 1 day, respectively.
HEK293T cells were infected with DENV-2 (MOI=0.1) with or without haloperidol for 1 day.
Monolayers of cells (HEK293T, BHK-21 and N18) in 6- or 12-well plates were infected with DENV-2 at the indicated multiplicity of infection (MOI). Virus was adsorbed for 2 h with the indicated concentrations of PCZ, then cells were washed thoroughly to remove unbound viruses and incubated for an additional 24 to 48 h with or without PCZ. The antiviral effect of PCZ was evaluated by immunofluorescence assay (IFA), immunoblotting and plaque-forming assay.
Cells were fixed with 4% PFA and permeabilized with 0.5% Triton X-100 in PBS.

[4] = tested on: DENV-1; test: Antiviral assay against DENV-1 (NS3 Western blot); settings: HEK293T, MOI=0.1, 2 days
[5] = tested on: clathrin-dependent endocytosis; settings: cited from earlier work
[6] = tested on: Japanese encephalitis virus (JEV); test: Antiviral assay against JEV (NS3 Western blot); type: cell-based; settings: BHK-21 cells, MOI=0.1, 2 days
[7] = tested on: HCV; settings: cell-based screening; cited from earlier work
[8] = tested on: DENV-2; test: Virus binding assay (confocal microscopy, plaque-forming assay of cell-bound virus)
[9] = mice, cited from earlier work
[10] = tested on: DENV-2; test: Virus entry assay (confocal microscopy, plaque-forming assay of internalized virus); type: cell-based, Dengue virus serotype 2
Procedure: Solvent control or PCZ (15 and 20 μM) was added 15 min before the end of virus adsorption. After a washing with PBS, cells were then shifted to 37° C. for an additional 1 h incubation. Live-cell staining was performed before cell fixation to label the cell membrane with CellMask (red) and nuclei with Hoechst (blue). […] (B) Plaque-forming assay of internalized DENV-2. […] After a washing with PBS, cells were shifted to 37° C. for an additional 1 h. Cells were physically destroyed to release the internalized DENV-2 and internalized virus was quantified by plaque-forming assays.
At 15 min before the end of virus adsorption, PCZ was added to the cell cultures. Cells were gently washed once with cold PBS, then were shifted to a 37° C. CO2 incubator for an additional 1 h to allow virus entry with or without PCZ. […] Cells were washed 3 times with cold washing buffer and once with cold PBS, then were fixed with 4% PFA for 10 min on ice. […] Level of virus titers was determined by plaque-forming assay.

[11] = tested on: DENV-2 replicon; test: DENV-2 replicon dual luciferase assay; type: cell-based, Dengue virus serotype 2; settings: HEK293T, PCZ 10 μM applied 5 h post-transfection
Procedure: DENV-2 replicon was constructed to contain the SP6 promoter upstream of a Renilla luciferase gene flanked by the DENV 5′ UTR plus a portion of the core gene in the 5′ end; portions of the envelope gene, full length of non-structural genes and 3′ UTR in the 3′ end. In vitro transcription was performed to generate the replicon RNA. HEK293T cells were co-transfected with replicon RNA and control firefly luciferase RNA. PCZ (10 μM) was applied to the transfected cells at 5 h post-transfection. Cells were then harvested at the indicated times for dual luciferase assays. Data are mean and SD of relative renilla luciferase to firefly luciferase from two independent experiments.

[12] = tested on: clathrin; test: Clathrin distribution during viral entry assay (confocal imaging); type: cell-based, human; settings: HEK293 cells, PCZ 20 and 30 μM, compared to solvent-treated cells
Procedure: Cells were fixed with 4% PFA and permeabilized with 0.5% Triton X-100 in PBS. After a blocking with 5% skim milk in PBS, DENV protein expression was detected in cells incubated with mouse anti-DENV-2 NS3 antibody (49), then Alexa Fluor-488-conjugated anti-mouse secondary antibody (Molecular Probes) for 1 h at room temperature. The nuclei were stained with DAPI or Hoechst (Molecular Probes). Cells were examined under an inverted fluorescence microscope (Olympus 1X71). For confocal microcopy, cells were seeded on coverslips in 24-well culture plates. After virus absorption and treatment, cells were extensively washed with cold washing buffer and PBS, then fixed with cold 4% PFA. Cells were washed twice with cold 10 mM glycine solution, then PBS. For clathrin staining, cells were permeabilized with 0.5% Triton X-100 in PBS and blocked with 5% BSA in PBS. Cells were stained with mouse anti-clathrin heavy chain (X22) (Pierce, MA1-065), then anti-mouse Alexa Fluor-568-conjugated secondary antibody (Molecular Probes). The coverslip was mounted onto a slide and examined under confocal laser scanning microscope (ZEISS LSM 700).

[13] = tested on: DENV-2; test: D2R dependence of PCZ inhibition of DENV-2 binding in N18, shLacZ-N18 and shD2R-N18 cells (NS3 Western blot); type: cell-based, Dengue virus serotype 2
Procedure: The lentivirus vector pLKO.1 carrying a short hairpin RNA (shRNA) targeting the mouse dopamine D2 receptor (5′-[…]-3′, SEQ ID NO: 1) or LacZ (5′-[…]-3′, SEQ ID NO: 2) from the Taiwan National RNAi Core Facility was cotransfected with pMD.G and pCMVΔR8.91 into HEK293T cells by use of Lipofectamine 2000 (INVITROGEN™). The lentiviruses were harvested from culture supernatants and concentrated by ultracentrifugation at 35,000 rpm in a Beckman SW41 rotor for 3.5 h at 4° C. The viral pellets were resuspended and used to transduce N18 cells. The D2R-deficient N18 cells (shD2R-N18) and LacZ-control cells (shLacZ-N18) were selected with puromycin (5 μg/ml).

[14] = 2 mg PCZ/kg body weight/2 days i.p., immediate treatment

mouse dopamine D2 receptor (mouse), sequence (P61168 other isoform, or with tags, fused parts or gaps): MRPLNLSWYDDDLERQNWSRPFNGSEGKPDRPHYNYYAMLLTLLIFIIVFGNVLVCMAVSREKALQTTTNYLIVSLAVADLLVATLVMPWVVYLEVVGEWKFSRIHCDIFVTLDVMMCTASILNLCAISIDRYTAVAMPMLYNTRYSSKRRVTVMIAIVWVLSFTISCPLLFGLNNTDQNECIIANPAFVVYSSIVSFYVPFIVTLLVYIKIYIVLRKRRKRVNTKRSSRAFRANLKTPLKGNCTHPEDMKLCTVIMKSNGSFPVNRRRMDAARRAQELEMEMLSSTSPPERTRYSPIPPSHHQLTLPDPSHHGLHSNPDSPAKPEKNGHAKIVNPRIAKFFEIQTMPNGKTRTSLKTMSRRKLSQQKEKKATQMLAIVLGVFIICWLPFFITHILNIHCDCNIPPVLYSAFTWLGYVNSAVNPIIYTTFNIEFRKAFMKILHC

## DENV-2 PL046 strain (dengue virus serotype 2), whole virion
[1]
  fold lower cell-bound virus on D2R-knockdown cells than on controls: 6 times

## prochlorperazine dimethanesulfonate [PCZ-Novamin]
[2]; [14]
  DENV-2-induced lethality timing: slightly delayed
  overall survival: 20%
[2]; 4 mg PCZ/kg body weight/2 days i.p., immediate treatment
  protection against DENV-2 challenge after 10 days of infection: completely protected
[2]; 4 mg PCZ/kg/2 days i.p., immediate treatment
  overall survival: 40%
[2]; 4 mg kg body weight/2 days i.p., from 6 h post-infection
  overall survival and mortality timing: did not improve the overall survival but delayed the mortality
[2]; 8 mg PCZ/kg body weight/2 days i.p., from 6 h post-infection
  mice surviving the DENV-2 challenge: 40%
[2]; 8 mg PCZ/kg body weight/2 days i.p., immediate treatment
  protection against DENV-2 challenge after 10 days of infection: completely protected
[2]; 8 mg PCZ/kg/2 days i.p., immediate treatment
  state of mice after treatment stopped at day 10 post-infection: remained healthy
[3]; DENV-2-infected HEK293T cells, IFA and Western blot
  protein expression of viral NS3: dose-dependently reduced
[3]; HEK293T cells, calculated by a published method
  EC50: 88.4 nM
[3]; HEK293T, DENV-2 MOI=1, 24 h
  viral progeny production by plaque-forming assay: significantly reduced viral progeny production
[4]
  DENV-1 replication (NS3 Western blot): reduced DENV-1 replication

## CN(C)CCCN1c2ccccc2Sc2ccc(Cl)cc21 [Chlorpromazine]
[5]
  clathrin-dependent endocytosis: inhibits clathrin-dependent endocytosis

## CN1CCN(CCCN2c3ccccc3Sc3ccc(Cl)cc32)CC1 [PCZ-dimaleate, Prochlorperazine dimaleate]
[2]; 1 mg PCZ/kg body weight/day, immediate treatment
  animal mortality timing: delayed animal mortality
[2]; 1 mg PCZ/kg body weight/day, immediate treatment, first i.p. then oral
  overall animal survival: 50%
[2]; 5 mg PCZ/kg body weight, 6-h delay treatment
  death timing: delayed death
[2]; 5 mg PCZ/kg body weight, 6-h delay treatment, 10 days
  overall survival: 50%
[2]; 5 mg/kg body weight/day, immediate treatment, first i.p. then oral, 10 days
  protection against death: completely protected against death
[6]
  JEV infection (NS3 Western blot): inhibits Japanese encephalitis virus (JEV) infection
[3]; BHK-21 cells, MOI=0.1, 2 days
  antiviral effect against DENV-2 infection (NS3 Western blot): shows antiviral effect against DENV-2 infection
[3]; HEK293T, MOI=0.1, PCZ 5, 10 and 15 μM, 2 days
  antiviral activity against DENV-2 infection: exhibits antiviral activity against DENV-2 infection
[3]; N18 cells, MOI=0.1, 1 day
  antiviral effect against DENV-2 infection (NS3 Western blot): shows antiviral effect against DENV-2 infection

## CN1CCN(CCCN2c3ccccc3Sc3ccc(Cl)cc32)CC1 [PCZ, prochlorperazine]
[7]
  anti-HCV activity: showed anti-HCV activity
[2]; oral administration at 5 μg/gram body weight daily
  protection of DENV-2 challenge mice: completely protected
[8]; A549 cells, MOI=5
  DENV-2 binding quantified by plaque forming assay: dose-dependently reduced
[8]; HEK293T, PCZ 1 h before and during virus adsorption at 4° C.
  levels of DENV-2 bound to the cell surface (confocal imaging): reduced the levels of DENV-2 bound to the cell surface
[9]; i.p. injection
  LD50: 191 mg/kg body weight
[9]; oral route
  LD50: 400 mg/kg body weight
[10]; BHK-21 cells, MOI=5
  levels of DENV-2 internalization quantified by plaque forming assay: significantly reduced
[10]; HEK293T, PCZ 15 and 20 μM, 1 h at 37° C.
  amounts of DENV-2 in the intracellular compartment (confocal microscopy): greatly reduced
[11]
  relative renilla luciferase to firefly luciferase (DENV-2 translation and RNA replication): No significant difference
[12]
  cellular clathrin distribution: showed a distinct clathrin distribution
[3]; Dengue virus, DENV2, HEK-293T
  EC50: 88.4 nM
[13]; N18 cells
  antiviral effect of PCZ given during binding (NS3): noted
[13]; shD2R-N18 cells (D2R-deficient)
  antiviral effect of PCZ given during binding (NS3): not
[13]; shLacZ-N18 cells (control knockdown)
  antiviral effect of PCZ given during binding (NS3): noted

## O=C(CCCN1CCC(O)(c2ccc(Cl)cc2)CC1)c1ccc(F)cc1 [haloperidol]
[3]; HEK293T, MOI=0.1, 1 day
  antiviral activity against DENV-2 infection (NS3 Western blot): showed antiviral activity against DENV-2 infection
